Active and inactive are the calls of the source. The rule behind the calls is not given here.
How the values were obtained:
Mus musculus [1] = assay: Locomotor activity of the mice was determined at a dose of 50 ng/Kg after 30-45 min of intracerebroventricular (icv) injection; Significantly reduced; format: functional, organism-based
Mus musculus [2] = assay: Locomotor activity of the mice was determined at a dose of 50 ng/Kg after 45-60 min of intracerebroventricular (icv) injection; Significantly reduced; format: functional, organism-based

SMILES	Activity (Mus musculus [1])	Activity (Mus musculus [2])
CC(=O)NCCc1c[nH]c2ccc(O)cc12	Active	Active
CCCCCCCCCCCCCCCCOP(=O)(OCCOC1CC(O)C(O)C(CO)O1)Oc1ccc2[nH]cc(CCNC(C)=O)c2c1 (stereo unspecified)	Significantly reduced	Significantly reduced
COc1ccc2[nH]cc(CCNC(C)=O)c2c1	Active	Active
